Measured values taken from BigSolDB 2.1.

COC(=O)c1ccnc(N)c1
solubility (mole fraction)
Conditions | 278.15 K | 283.15 K | 288.15 K | 293.15 K | 298.15 K | 303.15 K | 308.15 K | 313.15 K | 318.15 K | 323.15 K
in DMF | 0.00726 | 0.0087 | 0.0105 | 0.0126 | 0.0152 | 0.0183 | 0.0216 | 0.0249 | 0.0292 | 0.0339
in acetonitrile | 0.00539 | 0.00665 | 0.00838 | 0.0104 | 0.0127 | 0.015 | 0.0177 | 0.0206 | 0.0241 | 0.0277
in ethanol | 0.00321 | 0.00385 | 0.0047 | 0.00577 | 0.00694 | 0.00821 | 0.00976 | 0.0114 | 0.0132 | 0.0154
in isopropanol | 0.00385 | 0.0048 | 0.00601 | 0.00728 | 0.00889 | 0.0104 | 0.0122 | 0.0141 | 0.0163 | 0.019
in methanol | 0.00173 | 0.0021 | 0.00255 | 0.00312 | 0.00379 | 0.00453 | 0.00557 | 0.00665 | 0.00798 | 0.00946
in n-propanol | 0.00422 | 0.00528 | 0.00655 | 0.00813 | 0.00977 | 0.0117 | 0.0137 | 0.0163 | 0.019 | 0.0217
in toluene | 0.00824 | 0.00987 | 0.0122 | 0.0147 | 0.0177 | 0.0208 | 0.0243 | 0.0282 | 0.0327 | 0.0377
in water | 0.000935 | 0.00117 | 0.00142 | 0.00178 | 0.00217 | 0.00258 | 0.00302 | 0.00356 | 0.00416 | 0.00489
